This note sets out measurements from patent publication US10851062B2, “Substituted heteroaryl compound, composition containing same, and application thereof” (Shenzhen TargetRx, Inc., priority 2016, dated 2020).

Like-named read-outs stand apart in the source and are kept apart here.

The nature of data set [1]: Pharmacokinetic evaluation in rats. The data set is classed as in vivo, Sprague-Dawley rats. As to conditions: rat; for AUC(0-inf) / AUC(0-t) / Tmax / MRT inf / F / half-life / Cmax: male, Sprague-Dawley; for AUC(0-inf) / AUC(0-t) / Tmax / MRT inf / Cmax: plasma; for MRT inf: read-out: MRTINF_pred; for F / half-life: in vivo. As to the method: 6 male Sprague-Dawley rats (7-8 weeks old, and weighing approximately 210 g) were divided into 2 groups with 3 rats in each group. The rats were intravenously or orally administered a single dose of compound (3 mg/kg intravenously, 10 mg/kg orally) to compare pharmacokinetic differences.
The rats were raised on standard food and water. Fasting was started 16 hours before the test. The drug was dissolved with PEG400 and dimethyl sulfoxide. The blood samples were collected from eyelids at the time points of 0.083 hours, 0.25 hours, 0.5 hours, 1 hour, 2 hours, 4 hours, 6 hours, 8 hours, 12 hours, and 24 hours after administration.
Rats were briefly anesthetized after inhalation of diethyl ether and 300 μL of blood sample was collected from the eyelids into test tubes. There was 30 μL of 1% heparin salt solution in the test tube. Tubes were dried at 60° C. overnight before use. After the blood sample was collected at a later time point, the rats were sacrificed after ether anesthesia.
Immediately after the collection of the blood sample, the test tube was gently inverted at least 5 times to ensure sufficient mixing and then placed on ice. The blood sample was centrifuged at 5000 rpm at 4° C. for 5 minutes to separate the plasma from the red blood cells. 100 μL of plasma was aspirated into a clean plastic centrifuge tube with a pipette, marking with the name of the compound and time point. Plasma was stored at −80° C. prior to analysis. The concentration of the compound of the present disclosure in plasma was determined by LC-MS/MS. The pharmacokinetic parameters were calculated based on the blood concentration of each animal at different time points.

The nature of data set [2]: Metabolic stability in rat liver microsomes. Conditions: rat liver microsomes 0.5 mg/mL, compound 1 μM, NADPH, 37° C.; for microsomal CLint at 1 μM / half-life at 1 μM: Sprague-Dawley, pH 7.4; for half-life at 1 μM: read-out: t1/2 in rat liver microsomes. The data set is classed as in vitro ADME, SD rat. Here is the method: (§1) Experiments in microsomes: Human liver microsomes: 0.5 mg/mL, Xenotech; Rat liver microsomes: 0.5 mg/mL, Xenotech; Coenzyme (NADPH/NADH): 1 mM, Sigma Life Science; Magnesium chloride: 5 mM, 100 mM phosphate buffer (pH 7.4).
(§2) Preparation of stock solution: Powder of the example compound 1-7 was accurately weighed and dissolved in DMSO to 5 mM. Preparation of phosphate buffer (100 mM, pH7.4): A pre-formulated 0.5M potassium dihydrogen phosphate (150 mL) was mixed with 0.5M dibasic potassium phosphate (700 mL). The pH of the mixture was adjusted to 7.4 with 0.5M dibasic potassium phosphate solution. The mixture was diluted 5-fold with ultrapure water before use, and magnesium chloride was added to obtain a phosphate buffer (100 mM) containing 100 mM potassium phosphate, 3.3 mM magnesium chloride, pH 7.4. A NADPH regeneration system solution (containing 6.5 mM NADP, 16.5 mM G-6-P, 3 U/mL G-6-PD, 3.3 mM magnesium chloride) was prepared and placed on wet ice prior to use. Preparation of stop solution: acetonitrile solution containing 50 ng/mL propranolol hydrochloride and 200 ng/mL tolbutamide (internal standard). 25057.5 μL of phosphate buffer (pH 7.4) was taken into a 50 mL centrifuge tube, to which 812.5 μL human liver microsomes were added, and mixed to obtain a liver microsome dilution solution with a protein concentration of 0.625 mg/mL. 25057.5 μL of phosphate buffer (pH 7.4) was taken into a 50 mL centrifuge tube, to which 812.5 μL SD rat liver microsomes were added, and mixed to obtain a liver microsome dilution solution with a protein concentration of 0.625 mg/mL.
(§3) Incubation of the samples: The stock solution of the respective compound was respectively diluted to 0.25 mM with an aqueous solution containing 70% acetonitrile, and used as a working solution, ready for use. 398 μL of the dilution solution of human liver microsomes or rat liver microsome were added to a 96-well incubation plate (N=2), respectively, and 2 μL of 0.25 mM working solution was added and mixed.
(§4) Metabolic stability assay: 300 μL of pre-chilled stop solution was added to each well of a 96-well deep well plate and placed on ice as a stop plate. The 96 well incubation plate and NADPH regeneration system were placed in a 37° C. water bath box, shaken at 100 rpm and pre-incubated for 5 min. 80 μL of incubation solution was taken out from each well of the incubation plate and added to the stop plate, mixed, and replenished with 20 μL of NADPH regeneration system solution as a 0-min sample. 80 μL of NADPH regeneration system solution was added to each well of the incubation plate to start the reaction and start counting. […] Separately, 100 μL of the reaction solution was taken at 10, 30, and 90 min reaction, respectively, added to a stop plate, and vortexed for 3 minutes to terminate the reaction. The stop plate was centrifuged at 5000×g at 4° C. for 4 min. 100 μL of the supernatant was added to a 96-well plate to which 100 μL of distilled water was previously added, mixed, and analyzed by LC-MS/MS.
(§5) Data analysis: The peak areas of the corresponding compound and internal standard were detected by LC-MS/MS system, and the ratio of the peak area of the compound to the internal standard was calculated. The slope was measured by plotting the natural logarithm of the percent of compound remaining versus time, and t1/2 and CLint were calculated according to the formula, where V/M is equal to 1/protein concentration.
(In general: Liver microsomes are vesicles of endoplasmic reticulum, rich in cytochrome P450 enzymes.)

Data set [3] in a line: Metabolic stability in human liver microsomes. The data set is classed as in vitro ADME. As to conditions: pH 7.4, human liver microsomes 0.5 mg/mL, compound 1 μM, NADPH, 37° C.; for half-life at 1 μM: read-out: t1/2 in human liver microsomes. Here is the method:
as §1, §2, §3, §4, §5

As for `[2H]C([2H])(NC(=O)c1nc(C)c2cc(Oc3ccccc3)ccc2c1O)C(=O)O` [Compound 11, N-[(4-hydroxy-1-methyl-7-phenoxy-3-isoquinolinyl)carbonyl]-2,2-d2-glycine], in data set [1] (IV, 3 mg/kg single dose), the AUC(0-inf) – broadly, the area under the concentration-time curve extrapolated to infinity – came out at 51.6 µg·h/mL; the AUC(0-t) (in general, exposure summed from dosing to a finite time, without extrapolation to infinity) came to 51.6 µg·h/mL; the Tmax (commonly the time at which the peak concentration occurs) came to 0.08 h; the MRT inf is 2.84 h. Moreover, in data set [1] (IV, 3 mg/kg single dose), the concentration peaked (Cmax) at 19000 ng/mL and the Vz_pred is recorded as 0.21 L/kg. Also, in data set [1] (PO, 10 mg/kg single dose), the AUC(0-inf) came to 261 µg·h/mL, the AUC(0-t) is 260 µg·h/mL, the time of peak concentration (Tmax) came out at 4 h and the MRT inf came to 5.87 h. Besides, in data set [1] (PO, 10 mg/kg single dose), the highest level (Cmax) was 24600 ng/mL and the Vz_pred came out at 0.16 L/kg. The F in data set [1] was 151.17%. In data set [1] (iv, 3 mg/kg), this compound showed a half-life of 2.43 h. For the same compound, the half-life in data set [1] (po, 10 mg/kg) was 2.77 h. Moreover, in data set [2], the microsomal CLint (as a rule, a measure of how fast metabolising enzymes remove a compound, apart from limits set by blood flow) at 1 μM was under 8.6 µL/min/mg and the half-life at 1 μM is over 2.42 h.
On to `[2H]Cc1nc(C(=O)NCC(=O)O)c(O)c2ccc(Oc3ccccc3)cc12` [Compound 13, N-[(4-hydroxy-1-d-methyl-7-phenoxy-3-isoquinolinyl)carbonyl] glycine], for which, in data set [2], the intrinsic metabolic clearance (microsomal CLint) at 1 μM was under 8.6 µL/min/mg and the half-life at 1 μM is over 2.42 h. In data set [3], the microsomal CLint at 1 μM was under 8.6 µL/min/mg and the half-life at 1 μM was over 2.42 h.
On to `[2H]c1cc([2H])c(Oc2ccc3c(O)c(C(=O)NCC(=O)O)nc(C)c3c2)c([2H])c1` [Compound 23], for which, in data set [2], the microsomal CLint at 1 μM was under 8.6 µL/min/mg and the half-life at 1 μM was over 2.42 h. Moreover, in data set [3], the microsomal CLint at 1 μM is under 8.6 µL/min/mg and the half-life at 1 μM was over 2.42 h.
Take `[2H]c1c([2H])c([2H])c(Oc2ccc3c(O)c(C(=O)NCC(=O)O)nc(C)c3c2)c([2H])c1[2H]` [Compound 32, N-[(4-hydroxy-1-methyl-7-(d5-phenoxy)-3-isoquinolinyl)carbonyl] glycine]: in data set [1] (IV, 3 mg/kg single dose), the AUC(0-inf) amounted to 55.9 µg·h/mL, the AUC(0-t) is 55.9 µg·h/mL, the Tmax amounted to 0.75 h and the MRT inf amounted to 3.14 h. In data set [1] (IV, 3 mg/kg single dose), the Cmax (usually the highest concentration seen after dosing) was 12200 ng/mL and the Vz_pred amounted to 0.18 L/kg. For the same compound, in data set [1] (PO, 10 mg/kg single dose), the AUC(0-inf) is 185 µg·h/mL, the AUC(0-t) was 185 µg·h/mL, the Tmax came to 0.83 h and the MRT inf worked out at 5.33 h. Moreover, in data set [1] (PO, 10 mg/kg single dose), the Cmax worked out at 17700 ng/mL and the Vz_pred was determined as 0.21 L/kg. The F in data set [1] worked out at 99.05%. This compound also gave a half-life in data set [1] (iv, 3 mg/kg) of 2.49 h. The half-life in data set [1] (po, 10 mg/kg) was 2.43 h. Also, in data set [2], the microsomal CLint at 1 μM is under 8.6 µL/min/mg and the half-life at 1 μM is over 2.42 h. For the same compound, in data set [3], the microsomal CLint at 1 μM was under 8.6 µL/min/mg and the half-life at 1 μM was over 2.42 h.
On to `[2H]C([2H])(NC(=O)c1nc(C([2H])([2H])[2H])c2cc(Oc3ccccc3)ccc2c1O)C(=O)O` [Compound 36, N-[(4-hydroxy-1-(d3-methyl)-7-phenoxy-3-isoquinolinyl)carbonyl]-2,2-d2-glycine], for which the microsomal CLint at 1 μM in data set [2] and in data set [3] was under 8.6 µL/min/mg in each case. The half-life at 1 μM in data set [2] and in data set [3] was over 2.42 h each time.
Consider `[2H]c1cccc(Oc2ccc3c(O)c(C(=O)NCC(=O)O)nc(C)c3c2)c1` [Compound 46, N-[(4-hydroxy-1-methyl-7-(3-d-phenoxy)-3-isoquinolinyl)carbonyl]glycine], for which the microsomal CLint at 1 μM in data set [2] and in data set [3] was under 8.6 µL/min/mg each time. Besides, the half-life at 1 μM in data set [2] and in data set [3] was over 2.42 h each time.
Turning to `[2H]c1cc([2H])c(Oc2ccc3c(O)c(C(=O)NC([2H])([2H])C(=O)O)nc(C)c3c2)c([2H])c1` [Compound 47], the microsomal CLint at 1 μM in data set [2] and in data set [3] was under 8.6 µL/min/mg throughout. Further, the half-life at 1 μM in data set [2] and in data set [3] was over 2.42 h in each case.
Regarding `[2H]c1c([2H])c([2H])c(Oc2ccc3c(O)c(C(=O)NC([2H])([2H])C(=O)O)nc(C)c3c2)c([2H])c1[2H]` [Compound 48, N-[(4-hydroxy-1-methyl-7-(d5-phenoxy))-3-(3-isoquinolinyl)carbonyl]-2,2-d2-glycine], in data set [2], the microsomal CLint at 1 μM was under 8.6 µL/min/mg and the half-life at 1 μM was over 2.42 h. Further, in data set [3], the microsomal CLint at 1 μM is under 8.6 µL/min/mg and the half-life at 1 μM is over 2.42 h.
Turning to `[2H]c1cccc(Oc2ccc3c(O)c(C(=O)NC([2H])([2H])C(=O)O)nc(C)c3c2)c1` [Compound 49, N-[(4-hydroxy-1-methyl-7-(3-d-phenoxy)-3-isoquinolinyl)carbonyl]-2,2-d2-glycine], in data set [1] (IV, 3 mg/kg single dose), the AUC(0-inf) worked out at 49.5 µg·h/mL, the AUC(0-t) amounted to 49.4 µg·h/mL, the Tmax came to 0.08 h and the MRT inf came out at 2.85 h. Further, in data set [1] (IV, 3 mg/kg single dose), the Cmax came out at 19500 ng/mL and the Vz_pred is 0.25 L/kg. Besides, in data set [1] (PO, 10 mg/kg single dose), the AUC(0-inf) is 222 µg·h/mL, the AUC(0-t) amounted to 218 µg·h/mL, the Tmax came out at 2.67 h and the MRT inf came to 5.83 h. In addition, in data set [1] (PO, 10 mg/kg single dose), the Cmax amounted to 25400 ng/mL and the Vz_pred came out at 0.24 L/kg. This compound also registered a F in data set [1] of 132.44%. In addition, the half-life in data set [1] (iv, 3 mg/kg) was 2.89 h. The half-life in data set [1] (po, 10 mg/kg) was 3.33 h. Moreover, in data set [2], the microsomal CLint at 1 μM was under 8.6 µL/min/mg and the half-life at 1 μM was over 2.42 h. Moreover, in data set [3], the microsomal CLint at 1 μM was under 8.6 µL/min/mg and the half-life at 1 μM is over 2.42 h.
Take “N-[(4-hydroxy-1-(d-methyl)-7-phenoxy-3-isoquinolinyl) carbonyl]-2,2-d2-glycine [Compound 34]”: in data set [2], the “CLint in rat liver microsomes” value was under 8.6 µL/min/mg and the “t1/2 in rat liver microsomes” value was over 2.42 h.
